# According to patent US9023789B2, “Amylin analogs and pharmaceutical compositions thereof” (Novo Nordisk A/S, priority 2012, dated 2015):
# Numbered stars: 1 amine (or outer) side, 2 acyl side, 3 side chain; on linkers, the order of the positions; unused ones are H or OH. Bridge positions count the residues as written; N and C are the ends. Peptide text beside a SMILES is read from it. * marks the point of attachment. C20 diacid = O=C(O)CCCCCCCCCCCCCCCCCCC(=O)*; γGlu = O=C(O)[C@H](CCC(=O)[*:2])N[*:1]; AEEA = NCCOCCOCC(=O)O
# Assays:
# [1] = target: T1, human amylin 3(a) receptor (human calcitonin receptor + RAMP-3) in BHK570 cells (Homo sapiens, UniProt O60896+P30988); experiment: ASSAY (II)a functional assay, human amylin receptor (CRE luciferase); assay type: cell-based
# T1 construct: expressed in transfected cells
# In short: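 Ligand exposure 3 h at 37 °C, 5% CO2 in DMEM with 10% FBS, 10 mM Hepes pH 7.4. cAMP-driven luciferase read by luminescence after 30 min LucLite at room temperature.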
# [2] = ASSAY (III) ThT fibrillation assay for physical stability; assay type: physicochemical
# In short: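 Formulations with 1 μM ThT, pH adjusted as required, incubated at 37 °C with 960 rpm orbital shaking; fluorescence (ex 444/em 485 nm) read every 20 min. Fibrillation reported as mean ThT fluorescence ± SD of 4–8 replicates at time points; polypeptide concentration measured by reverse-phase HPLC before and after, post-centrifugation.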
# [3] = target: T2, human amylin receptor (membranes from Amylin 3(a)/CRE-luc cells) (Homo sapiens, UniProt O60896+P30988); experiment: ASSAY (V) binding to the human amylin receptor (SPA, 125I-rat amylin);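 note: competition binding of cell membranes (35 ng/µL) mixed with SPA beads in 384-well plates at 40 µL total volume, read by scintillation counting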
# T2 construct: expressed in transfected cells
# T2 sequence (P30988 25-474): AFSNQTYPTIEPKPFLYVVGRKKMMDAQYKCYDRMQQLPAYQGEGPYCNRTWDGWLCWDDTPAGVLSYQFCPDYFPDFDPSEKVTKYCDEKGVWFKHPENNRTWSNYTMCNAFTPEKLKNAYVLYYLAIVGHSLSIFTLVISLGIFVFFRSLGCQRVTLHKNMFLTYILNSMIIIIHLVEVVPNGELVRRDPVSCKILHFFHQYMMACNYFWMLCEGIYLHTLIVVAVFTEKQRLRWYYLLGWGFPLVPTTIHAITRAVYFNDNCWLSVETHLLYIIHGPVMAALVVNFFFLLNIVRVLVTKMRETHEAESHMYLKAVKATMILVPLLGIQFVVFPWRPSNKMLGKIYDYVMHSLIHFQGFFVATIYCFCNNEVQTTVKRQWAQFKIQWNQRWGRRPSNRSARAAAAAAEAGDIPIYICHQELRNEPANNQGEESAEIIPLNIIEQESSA
# T2 sequence (O60896 24-148 partner): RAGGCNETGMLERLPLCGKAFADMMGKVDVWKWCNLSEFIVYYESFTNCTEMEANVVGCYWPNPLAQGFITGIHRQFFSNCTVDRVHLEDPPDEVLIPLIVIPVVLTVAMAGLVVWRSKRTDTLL
# [4] = hCTR funct. EC50 divided by hAmylin-R funct. EC50
# [5] = hCTR funct. EC50 over hAmylin-R funct. EC50
# [6] = human functional selectivity: hCTR funct. EC50 / hAmylin-R funct. EC50
# [7] = Table 5, selectivity, hCTR bind IC50 / hAmylin-R bind IC50
# [8] = Table 5a, selectivity, hCTR bind IC50 / hAmylin-R bind IC50
# [9] = Table 5b, selectivity, hCTR bind IC50 / hAmylin-R bind IC50
# [10] = Table 5c, selectivity, hCTR bind IC50 / hAmylin-R bind IC50
# [11] = Table 7, human binding selectivity, included for comparison
# [12] = Table 7a (preferred compounds), human binding selectivity, included for comparison
# [13] = ratio of human calcitonin receptor binding IC50 to human amylin receptor binding IC50
# [14] = hCTR funct. EC50 / hAmylin-R funct. EC50
"Ratio hCT/hAmylin funct. [1, 4]","Ratio hCT/hAmylin funct. [1, 5]","Ratio hCT/hAmylin funct. [1, 6]",ThT pH 4.0 lag time (h) [2] [h],"Ratio hCT/hAmylin binding [3, 7]","Ratio hCT/hAmylin binding [3, 8]","Ratio hCT/hAmylin binding [3, 9]","Ratio hCT/hAmylin binding [3, 10]","Ratio hCT/hAmylin binding [3, 11]","Ratio hCT/hAmylin binding [3, 12]","Ratio hCT/hAmylin binding [3, 13]",SMILES,"Ratio hCT/hAmylin funct. [1, 14]","EC50 ([1]; human amylin receptor functional potency, assay (II), read-out: hAmylin-R funct. EC50) [nM]","IC50 ([3]; Table 4, read-out: hAmylin-R bind IC50) [nM]"
3.8,3.8,3.8,45,12.3,12.3,–,–,12.3,12.3,12.3,CC[C@H](C)[C@H](NC(=O)[C@H](C)NC(=O)CNC(=O)[C@H](Cc1ccccc1)NC(=O)[C@H](CC(N)=O)NC(=O)[C@@H]1CCCN1C(=O)[C@H](CO)NC(=O)[C@H](CO)NC(=O)[C@H](Cc1c[nH]cn1)NC(=O)[C@H](CCCNC(=N)N)NC(=O)[C@H](CC(C)C)NC(=O)[C@H](Cc1ccccc1)NC(=O)[C@H](CCC(=O)O)NC(=O)[C@H](C)NC(=O)[C@H](CC(C)C)NC(=O)[C@H](CCCNC(=N)N)NC(=O)[C@H](CCC(N)=O)NC(=O)[C@@H](NC(=O)[C@H](C)NC(=O)[C@@H]1CSSC[C@H](NC(=O)[C@H](CCCCN)NC(=O)CC[C@H](NC(=O)CCCCCCCCCCCCCCCCCCC(=O)O)C(=O)O)C(=O)N[C@@H](CC(N)=O)C(=O)N[C@@H]([C@@H](C)O)C(=O)N[C@@H](C)C(=O)N[C@@H]([C@@H](C)O)C(=O)N1)[C@@H](C)O)C(=O)N1CCC[C@H]1C(=O)N[C@@H](CO)C(=O)N[C@@H](CO)C(=O)N[C@H](C(=O)N[C@@H](CC(N)=O)C(=O)N[C@H](C(=O)NCC(=O)N[C@@H](CO)C(=O)N[C@@H](CCC(=O)O)C(=O)N[C@H](C(=O)N[C@@H](Cc1ccc(O)cc1)C(N)=O)[C@@H](C)O)C(C)C)[C@@H](C)O [Example 22] ({C20 diacid-γGlu}-KCNTATCATQRLAEFLRHSSPNFGAIPSSTNVGSETY-NH2; disulfide 2-7),3.8,–,–
8.9,8.9,8.9,3,25.0,25.0,25.0,25.0,25.0,25.0,25.0,CC[C@H](C)[C@H](NC(=O)[C@H](C)NC(=O)CNC(=O)[C@H](Cc1ccccc1)NC(=O)[C@H](CC(N)=O)NC(=O)[C@@H]1CCCN1C(=O)[C@H](CO)NC(=O)[C@H](CO)NC(=O)[C@H](Cc1c[nH]cn1)NC(=O)[C@H](CCCNC(=N)N)NC(=O)[C@H](CC(C)C)NC(=O)[C@H](Cc1ccccc1)NC(=O)[C@H](CC(N)=O)NC(=O)[C@H](C)NC(=O)[C@H](CC(C)C)NC(=O)[C@H](CCCNC(=N)N)NC(=O)[C@H](CCC(N)=O)NC(=O)[C@@H](NC(=O)[C@H](C)NC(=O)[C@@H]1CSSC[C@H](NC(=O)[C@H](CCCCN)NC(=O)CC[C@H](NC(=O)CCCCCCCCCCCCCCCCCCC(=O)O)C(=O)O)C(=O)N[C@@H](CC(N)=O)C(=O)N[C@@H]([C@@H](C)O)C(=O)N[C@@H](C)C(=O)N[C@@H]([C@@H](C)O)C(=O)N1)[C@@H](C)O)C(=O)N1CCC[C@H]1C(=O)N[C@@H](CO)C(=O)N[C@@H](CO)C(=O)N[C@H](C(=O)N[C@@H](CC(N)=O)C(=O)N[C@H](C(=O)NCC(=O)N[C@@H](CO)C(=O)N[C@@H](CCC(=O)O)C(=O)N[C@H](C(=O)N[C@@H](Cc1ccc(O)cc1)C(N)=O)[C@@H](C)O)C(C)C)[C@@H](C)O [Example 23],–,–,–

# Further lines, the compound ahead of its results:
SMILES,"Ratio hCT/hAmylin funct. [1, 4]","Ratio hCT/hAmylin funct. [1, 5]","Ratio hCT/hAmylin funct. [1, 6]",ThT pH 4.0 lag time (h) [2] [h],"Ratio hCT/hAmylin binding [3, 7]","Ratio hCT/hAmylin binding [3, 8]","Ratio hCT/hAmylin binding [3, 9]","Ratio hCT/hAmylin binding [3, 10]","Ratio hCT/hAmylin binding [3, 11]","Ratio hCT/hAmylin binding [3, 12]","Ratio hCT/hAmylin binding [3, 13]","Ratio hCT/hAmylin funct. [1, 14]","EC50 ([1]; human amylin receptor functional potency, assay (II), read-out: hAmylin-R funct. EC50) [nM]","IC50 ([3]; Table 4, read-out: hAmylin-R bind IC50) [nM]"
CC[C@H](C)[C@H](NC(=O)[C@H](C)NC(=O)CNC(=O)[C@H](Cc1ccccc1)NC(=O)[C@H](CC(N)=O)NC(=O)[C@@H]1CCCN1C(=O)[C@H](CO)NC(=O)[C@H](CO)NC(=O)[C@H](Cc1c[nH]cn1)NC(=O)[C@H](CCCNC(=N)N)NC(=O)[C@H](CC(C)C)NC(=O)[C@H](Cc1ccccc1)NC(=O)[C@H](CCC(=O)O)NC(=O)[C@H](C)NC(=O)[C@H](CC(C)C)NC(=O)[C@H](CCCNC(=N)N)NC(=O)[C@H](CCC(N)=O)NC(=O)[C@@H](NC(=O)[C@H](C)NC(=O)[C@@H]1CSSC[C@H](NC(=O)[C@H](CCCCN)NC(=O)COCCOCCNC(=O)COCCOCCNC(=O)CC[C@H](NC(=O)CCCCCCCCCCCCCCCCCCC(=O)O)C(=O)O)C(=O)N[C@@H](CC(N)=O)C(=O)N[C@@H]([C@@H](C)O)C(=O)N[C@@H](C)C(=O)N[C@@H]([C@@H](C)O)C(=O)N1)[C@@H](C)O)C(=O)N1CCC[C@H]1C(=O)N[C@@H](CO)C(=O)N[C@@H](CO)C(=O)N[C@H](C(=O)N[C@@H](CC(N)=O)C(=O)N[C@H](C(=O)NCC(=O)N[C@@H](CO)C(=O)N[C@@H](CC(N)=O)C(=O)N[C@H](C(=O)N[C@@H](Cc1ccc(O)cc1)C(N)=O)[C@@H](C)O)C(C)C)[C@@H](C)O [Example 19],17.4,17.4,17.4,9,36.7,36.7,36.7,36.7,36.7,36.7,36.7,–,–,–
CC[C@H](C)[C@H](NC(=O)[C@H](C)NC(=O)CNC(=O)[C@H](Cc1ccccc1)NC(=O)[C@H](CC(N)=O)NC(=O)[C@@H]1CCCN1C(=O)[C@H](CO)NC(=O)[C@H](CO)NC(=O)[C@H](Cc1c[nH]cn1)NC(=O)[C@H](CCCNC(=N)N)NC(=O)[C@H](CC(C)C)NC(=O)[C@H](Cc1ccccc1)NC(=O)[C@H](CCC(=O)O)NC(=O)[C@H](C)NC(=O)[C@H](CC(C)C)NC(=O)[C@H](CCCNC(=N)N)NC(=O)[C@H](CCC(N)=O)NC(=O)[C@@H](NC(=O)[C@H](C)NC(=O)[C@@H]1CSSC[C@H](NC(=O)[C@H](CCCCN)NC(=O)COCCOCCNC(=O)COCCOCCNC(=O)CC[C@H](NC(=O)CCCCCCCCCCCCCCCCCCC(=O)O)C(=O)O)C(=O)N[C@@H](CC(N)=O)C(=O)N[C@@H]([C@@H](C)O)C(=O)N[C@@H](C)C(=O)N[C@@H]([C@@H](C)O)C(=O)N1)[C@@H](C)O)C(=O)N1CCC[C@H]1C(=O)N[C@@H](CO)C(=O)N[C@@H](CO)C(=O)N[C@H](C(=O)N[C@@H](CC(N)=O)C(=O)N[C@H](C(=O)NCC(=O)N[C@@H](CO)C(=O)N[C@@H](CC(N)=O)C(=O)N[C@H](C(=O)N1CCC[C@H]1C(N)=O)[C@@H](C)O)C(C)C)[C@@H](C)O [Example 20] ({C20 diacid-γGlu-AEEA-AEEA}-KCNTATCATQRLAEFLRHSSPNFGAIPSSTNVGSNTP-NH2; disulfide 2-7),3.6,3.6,3.6,45,3.6,–,–,–,3.6,–,–,3.6,0.08,0.217
CC[C@H](C)[C@H](NC(=O)[C@H](C)NC(=O)CNC(=O)[C@H](Cc1ccccc1)NC(=O)[C@H](CC(N)=O)NC(=O)[C@@H]1CCCN1C(=O)[C@H](CO)NC(=O)[C@H](CO)NC(=O)[C@H](Cc1c[nH]cn1)NC(=O)[C@H](CCCNC(=N)N)NC(=O)[C@H](CC(C)C)NC(=O)[C@H](Cc1ccccc1)NC(=O)[C@H](CC(N)=O)NC(=O)[C@H](C)NC(=O)[C@H](CC(C)C)NC(=O)[C@H](CCCNC(=N)N)NC(=O)[C@H](CCC(N)=O)NC(=O)[C@@H](NC(=O)[C@H](C)NC(=O)[C@@H]1CSSC[C@H](NC(=O)[C@H](CCCCN)NC(=O)COCCOCCNC(=O)COCCOCCNC(=O)CC[C@H](NC(=O)CCCCCCCCCCCCCCCCCCC(=O)O)C(=O)O)C(=O)N[C@@H](CC(N)=O)C(=O)N[C@@H]([C@@H](C)O)C(=O)N[C@@H](C)C(=O)N[C@@H]([C@@H](C)O)C(=O)N1)[C@@H](C)O)C(=O)N1CCC[C@H]1C(=O)N[C@@H](CO)C(=O)N[C@@H](CO)C(=O)N[C@H](C(=O)N[C@@H](CC(N)=O)C(=O)N[C@H](C(=O)NCC(=O)N[C@@H](CO)C(=O)N[C@@H](CC(N)=O)C(=O)N[C@H](C(=O)N[C@@H](Cc1ccc(O)cc1)C(N)=O)[C@@H](C)O)C(C)C)[C@@H](C)O [Example 24],23.1,23.1,23.1,34,90.0,90.0,90.0,90.0,90.0,90.0,90.0,–,–,–
